Assay results: patent US10669272B2, “Substituted naphthyridinone compounds useful as T cell activators” (BRISTOL-MYERS SQUIBB COMPANY, priority 2018, dated 2020)
Where two headings read alike, the source gives them in different places.

Experiments:
human DGKα = target: T1, human DGKα (Homo sapiens, UniProt P23743); assay: DGKα LIPGLO assay (extruded liposome substrate), in vitro DGK inhibition; type: biochemical; settings: read-out: DGKa LIPGLO IC50
T1 construct: TVMV protease cleavage site (C); Hexa-His (C); made in house; host or cells: Sf9 insect cells (baculovirus, Bac-to-Bac)
T1 sequence (P23743 with tags, fused parts or gaps): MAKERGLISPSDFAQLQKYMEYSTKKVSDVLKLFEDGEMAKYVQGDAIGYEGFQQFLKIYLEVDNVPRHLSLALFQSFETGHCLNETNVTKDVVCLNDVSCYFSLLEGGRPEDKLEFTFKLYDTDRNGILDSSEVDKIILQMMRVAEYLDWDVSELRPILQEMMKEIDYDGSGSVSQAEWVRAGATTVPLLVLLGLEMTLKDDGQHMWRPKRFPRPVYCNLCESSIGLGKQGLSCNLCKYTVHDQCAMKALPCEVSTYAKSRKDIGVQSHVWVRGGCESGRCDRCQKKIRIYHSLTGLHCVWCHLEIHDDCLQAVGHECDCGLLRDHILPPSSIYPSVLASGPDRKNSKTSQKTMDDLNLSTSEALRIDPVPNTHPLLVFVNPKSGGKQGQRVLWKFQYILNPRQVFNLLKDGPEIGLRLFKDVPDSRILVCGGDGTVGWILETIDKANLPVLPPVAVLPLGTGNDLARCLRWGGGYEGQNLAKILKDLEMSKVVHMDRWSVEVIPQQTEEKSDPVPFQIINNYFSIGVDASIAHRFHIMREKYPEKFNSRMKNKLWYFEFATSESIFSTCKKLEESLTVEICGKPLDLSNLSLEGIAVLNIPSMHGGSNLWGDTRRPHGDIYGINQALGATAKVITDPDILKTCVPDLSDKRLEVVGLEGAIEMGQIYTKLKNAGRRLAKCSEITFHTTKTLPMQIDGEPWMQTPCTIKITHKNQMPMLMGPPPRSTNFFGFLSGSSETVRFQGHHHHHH

human DGKζ = target: T2, human DGKζ (Homo sapiens, UniProt Q13574); assay: DGKζ LIPGLO assay (extruded liposome substrate), in vitro DGK inhibition; type: biochemical; settings: read-out: DGKz LIPGLO IC50
T2 construct: TVMV protease cleavage site (C); Hexa-His (C); made in house; host or cells: Sf9 insect cells (baculovirus, Bac-to-Bac)
T2 sequence (Q13574 with tags, fused parts or gaps isoform Q13574-4): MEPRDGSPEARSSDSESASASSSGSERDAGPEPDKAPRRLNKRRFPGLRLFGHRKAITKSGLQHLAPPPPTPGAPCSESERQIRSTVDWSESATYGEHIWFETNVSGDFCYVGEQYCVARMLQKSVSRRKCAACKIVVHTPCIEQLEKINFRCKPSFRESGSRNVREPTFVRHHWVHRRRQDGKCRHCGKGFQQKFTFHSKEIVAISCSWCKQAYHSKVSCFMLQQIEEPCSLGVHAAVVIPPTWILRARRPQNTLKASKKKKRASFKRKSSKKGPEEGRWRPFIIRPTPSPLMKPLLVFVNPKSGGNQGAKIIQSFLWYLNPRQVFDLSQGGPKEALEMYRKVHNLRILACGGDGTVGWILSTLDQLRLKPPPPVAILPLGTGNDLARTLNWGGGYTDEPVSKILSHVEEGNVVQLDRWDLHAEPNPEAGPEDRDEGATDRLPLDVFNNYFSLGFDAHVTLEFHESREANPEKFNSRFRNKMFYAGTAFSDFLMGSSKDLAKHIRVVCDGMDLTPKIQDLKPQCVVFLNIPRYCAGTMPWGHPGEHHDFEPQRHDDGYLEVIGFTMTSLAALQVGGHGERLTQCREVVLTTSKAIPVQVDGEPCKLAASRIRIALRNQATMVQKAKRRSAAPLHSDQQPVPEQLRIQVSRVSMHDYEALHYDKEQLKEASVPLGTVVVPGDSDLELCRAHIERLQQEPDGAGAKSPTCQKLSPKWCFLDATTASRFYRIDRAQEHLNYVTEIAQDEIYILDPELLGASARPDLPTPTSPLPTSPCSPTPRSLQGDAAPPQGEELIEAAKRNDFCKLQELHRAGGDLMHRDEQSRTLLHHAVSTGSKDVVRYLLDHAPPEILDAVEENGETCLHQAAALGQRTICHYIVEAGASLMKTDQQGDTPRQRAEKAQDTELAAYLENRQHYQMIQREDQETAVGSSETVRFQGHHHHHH

IC50 (human DGKα; liposome (LIPGLO) assay)	IC50 (human DGKζ; liposome (LIPGLO) assay)	IC50 (human DGKα; DGKα liposome (LIPGLO) assay)	IC50 (human DGKζ; DGKζ liposome (LIPGLO) assay)	SMILES
1.4 µM	1.8 µM			C[C@@H]1CN(c2cc(=O)n(C)c3ccc(C#N)nc23)[C@@H](C)CN1C(c1ccc(OC(F)(F)F)cc1F)C1CC1 (stereo partly drawn) [Example 481, 8-((2S,5R)-4-(cyclopropyl(2-fluoro-4-(trifluoromethoxy)phenyl)methyl)-2,5-dimethylpiperazin-1-yl)-5-methyl-6-oxo-5,6-dihydro-1,5-naphthyridine-2-carbonitrile]
27 µM	14 µM			CC(c1cc(F)c(F)cc1Cl)N1C[C@H](C)N(c2cc(=O)n(C)c3ccc(C#N)nc23)C[C@H]1C (stereo partly drawn) [Example 486, 8-((2S,5R)-4-(1-(2-chloro-4,5-difluorophenyl)ethyl)-2,5-dimethylpiperazin-1-yl)-5-methyl-6-oxo-5,6-dihydro-1,5-naphthyridine-2-carbonitrile]
7.1 µM	10 µM			COC(CN1C[C@H](C)N(c2cc(=O)n(C)c3ccc(C#N)nc23)C[C@H]1C)c1ccc(F)cc1 (stereo partly drawn) [Example 561, 8-((2S,5R)-4-(2-(4-fluorophenyl)-2-methoxyethyl)-2,5-dimethylpiperazin-1-yl)-5-methyl-6-oxo-5,6-dihydro-1,5-naphthyridine-2-carbonitrile]
> 250 µM	> 250 µM			C[C@@H]1CN(c2c(C(F)F)c(=O)n(C)c3ccc(C#N)nc23)[C@@H](C)CN1Cc1ccc(OC(F)(F)F)cc1F [Example 570]
4.3 µM	0.64 µM			C[C@@H]1CN(c2cc(=O)n(C)c3ccc(C#N)nc23)[C@@H](C)CN1Cc1cccc(N(C)C)c1 [Example 573]
0.091 µM	7.4 µM			C[C@@H]1CN(c2cc(=O)n(C)c3ccc(C#N)nc23)[C@@H](C)CN1Cc1ccc(OC(F)F)cc1 [Example 588]
7 µM	1.4 µM			CC(C)Oc1cccc(CN2C[C@H](C)N(c3cc(=O)n(C)c4ccc(C#N)nc34)C[C@H]2C)c1 [Example 594]
0.39 µM	4.7 µM			CC(C)Oc1ccccc1CN1C[C@H](C)N(c2cc(=O)n(C)c3ccc(C#N)nc23)C[C@H]1C [Example 595]
0.34 µM	1.8 µM			CC(C)Oc1cc(F)ccc1CN1C[C@H](C)N(c2cc(=O)n(C)c3ccc(C#N)nc23)C[C@H]1C [Example 598]
3.1 µM	1.9 µM			CCOc1cccc(CN2C[C@H](C)N(c3cc(=O)n(C)c4ccc(C#N)nc34)C[C@H]2C)c1 [Example 599]
1.6 µM	9.2 µM			Cc1cc(OC(F)(F)F)ccc1CN1C[C@H](C)N(c2cc(=O)n(C)c3ccc(C#N)nc23)C[C@H]1C [Example 608]
0.39 µM	13 µM			C[C@@H]1CN(c2cc(=O)n(C)c3ccc(C#N)nc23)[C@@H](C)CN1Cc1cccc2c1OCCN2C(=O)OC(C)(C)C [Example 630]
1.4 µM	4.3 µM			CC(=O)N1CCOc2c(CN3C[C@H](C)N(c4cc(=O)n(C)c5ccc(C#N)nc45)C[C@H]3C)cccc21 [Example 631]
6.5 µM	11 µM			C[C@@H]1CN(c2cc(=O)n(C)c3ccc(C#N)nc23)[C@@H](C)CN1CCc1ccccc1 [Example 632]
6.7 µM	10 µM			Cc1ccc(CCN2C[C@H](C)N(c3cc(=O)n(C)c4ccc(C#N)nc34)C[C@H]2C)cc1 [Example 633]
8 µM	150 µM			C[C@@H]1CN(c2cc(=O)n(C)c3ccc(C#N)nc23)[C@@H](C)CN1Cc1cccc2c1N(C)C(=O)CO2 [Example 635]
0.094 µM	1.1 µM			CC(c1ccc(OC(F)F)cn1)N1C[C@H](C)N(c2cc(=O)n(C)c3ccc(C#N)nc23)C[C@H]1C (stereo partly drawn) [Example 653]
1 µM	37 µM			C[C@@H]1CN(c2cc(=O)n(C)c3ccc(C#N)nc23)[C@@H](C)CN1C(c1ccc(F)cc1)c1cn(C)cn1 (stereo partly drawn) [Example 708]
		0.63 µM	1.1 µM	C[C@@H]1CN(c2cc(=O)n(C)c3ccc(C#N)nc23)[C@@H](C)CN1C(c1ccc(F)cc1)c1nnc(C2CC2)s1 (stereo partly drawn) [Example 774, 8-((2S,5R)-4-((5-cyclopropyl-1,3,4-thiadiazol-2-yl)(4-fluorophenyl)methyl)-2,5-dimethylpiperazin-1-yl)-5-methyl-6-oxo-5,6-dihydro-1,5-naphthyridine-2-carbonitrile]
		0.055 µM	0.038 µM	C[C@@H]1CN(c2cc(=O)n(C)c3ccc(C#N)nc23)[C@@H](C)CN1C(c1ccc(F)cc1)c1nc(C2CC2)co1 (stereo partly drawn) [Example 776, 8-((2S,5R)-4-((4-cyclopropyloxazol-2-yl)(4-fluorophenyl)methyl)-2,5-dimethylpiperazin-1-yl)-5-methyl-6-oxo-5,6-dihydro-1,5-naphthyridine-2-carbonitrile]
		> 250 µM	83 µM	CC(c1ccc(C(=O)O)cc1)N1C[C@H](C)N(c2c(C#N)c(=O)n(C)c3ccc(C#N)nc23)C[C@H]1C (stereo partly drawn) [Example 786]
		200 µM	83 µM	CC(c1ccc(C(=O)O)cc1)N1C[C@H](C)N(c2c(C#N)c(=O)n(C)c3ccc(C#N)nc23)C[C@H]1C (stereo partly drawn) [Example 787]
		4.8 µM	> 250 µM	CC(c1ccc(C(F)(F)F)cc1)N1C[C@H](C)N(c2c(C#N)c(=O)n(C)c3ccc(C#N)nc23)C[C@H]1C (stereo partly drawn) [Example 788]
		23 µM	3.2 µM	Cc1ccc(C(c2ccc(Cl)cc2)N2C[C@H](C)N(c3c(C#N)c(=O)n(C)c4ccc(C#N)nc34)C[C@H]2C)cc1 (stereo partly drawn) [Example 825]

IC50 (human DGKα; liposome (LIPGLO) assay)	IC50 (human DGKζ; liposome (LIPGLO) assay)	IC50 (human DGKα; DGKα liposome (LIPGLO) assay)	IC50 (human DGKζ; DGKζ liposome (LIPGLO) assay)	SMILES
		43 µM	3.1 µM	Cc1ccc(C(c2ccc(Cl)cc2)N2C[C@H](C)N(c3c(C#N)c(=O)n(C)c4ccc(C#N)nc34)C[C@H]2C)cc1 (stereo partly drawn) [Example 826]
		14 µM	2.2 µM	C[C@@H]1CN(c2c(C#N)c(=O)n(C)c3ccc(C#N)nc23)CCN1C(c1ccccc1)c1cc(F)cc(F)c1 (stereo partly drawn) [Example 874]
		3.4 µM	16 µM	C[C@@H]1CN(c2c(C#N)c(=O)n(C)c3ccc(C#N)nc23)CCN1C(c1ccc(Cl)cc1)c1ncccc1F (stereo partly drawn) [Example 909]
		2.1 µM	5.5 µM	C[C@@H]1CN(c2c(C#N)c(=O)n(C)c3ccc(C#N)nc23)CCN1C(c1ccc(Cl)cc1)c1ncccc1F (stereo partly drawn) [Example 913]
		0.8 µM	2.7 µM	C[C@@H]1CN(c2c(C#N)c(=O)n(C)c3ccc(C#N)nc23)CCN1C(c1ccc(Cl)cc1)c1ccc(Cl)cn1 (stereo partly drawn) [Example 931]
		5.9 µM	2.8 µM	Cc1ccc(C(c2ccc(F)cc2Cl)N2CCN(c3c(C#N)c(=O)n(C)c4ccc(C#N)nc34)C[C@H]2C)nc1 (stereo partly drawn) [Example 938]
		1.1 µM	6.7 µM	C[C@@H]1CN(c2c(C#N)c(=O)n(C)c3ccc(C#N)nc23)CCN1C(c1ccc(F)cc1)c1cnccn1 (stereo partly drawn) [Example 943]
		> 250 µM	> 250 µM	CC(c1ccc(C(=O)O)cc1)N1CCN(c2c(C#N)c(=O)n(C)c3ccc(C#N)nc23)C[C@H]1C (stereo partly drawn) [Example 973]
		5.7 µM	13 µM	COC(=O)c1ccc(C(C)N2CCN(c3c(C#N)c(=O)n(C)c4ccc(C#N)nc34)C[C@H]2C)cc1 (stereo partly drawn) [Example 980]
		1.5 µM	0.88 µM	C[C@@H]1CN(c2c(C#N)c(=O)n(C)c3ccc(C#N)nc23)CCN1Cc1c(F)cccc1Cl [Example 984]
		21 µM	> 250 µM	C[C@@H]1CN(c2c(C#N)c(=O)n(C)c3ccc(C#N)nc23)CCN1Cc1cccnc1 [Example 998]
		0.42 µM	3.9 µM	Cc1ccc(CN2CCN(c3c(C#N)c(=O)n(C)c4ccc(C#N)nc34)C[C@H]2C)cc1 [Example 1007]
		1.7 µM	7.1 µM	C[C@@H]1CN(c2c(C#N)c(=O)n(C)c3ccc(C#N)nc23)CCN1Cc1cccc(OC(F)(F)F)c1 [Example 1008]
		0.35 µM	1.4 µM	Cc1cccc(CN2CCN(c3c(C#N)c(=O)n(C)c4ccc(C#N)nc34)C[C@H]2C)c1 [Example 1012]
0.21 µM	0.27 µM			CC[C@H]1CN(C(c2cccc(F)c2)c2ccc(OC)cn2)[C@H](CC)CN1c1cc(=O)n(C)c2ccc(C#N)nc12 (stereo partly drawn) [Example 1047]
0.011 µM	0.1 µM			CC[C@@H]1CN(c2cc(=O)n(C)c3ccc(C#N)nc23)[C@@H](CC)CN1Cc1ccc(F)cc1 [Example 1061]
0.08 µM	0.039 µM			CC[C@H]1CN(C(c2ccc(F)cc2)c2nc(C3CC3)no2)[C@H](CC)CN1c1cc(=O)n(C)c2ccc(C#N)nc12 (stereo partly drawn) [Example 1064]
0.028 µM	0.03 µM			CC[C@H]1CN(C(c2ccc(F)cc2)c2nc(C3CC3)cs2)[C@H](CC)CN1c1cc(=O)n(C)c2ccc(C#N)nc12 (stereo partly drawn) [Example 1066]
0.031 µM	0.013 µM			CC[C@@H]1CN(c2cc(=O)n(C)c3ccc(C#N)nc23)[C@@H](C)CN1C(c1ccc(F)cc1)c1nc(C2CC2)no1 (stereo partly drawn) [Example 1116]
18 µM	18 µM			Cc1ccc(C(c2ccc(C)cc2)N2C[C@H](C)N(c3cc(=O)n(C)c4ccc(C#N)nc34)C[C@H]2CO)cc1 [Example 1150, 8-((2S,5S)-4-(di-p-tolylmethyl)-5-(hydroxymethyl)-2-methylpiperazin-1-yl)-5-methyl-6-oxo-5,6-dihydro-1,5-naphthyridine-2-carbonitrile]
9.6 µM	22 µM			C[C@H]1CN(C(c2ccc(F)cc2)c2ccc(F)cc2)[C@H](CO)CN1c1cc(=O)n(C)c2ccc(C#N)nc12 [Example 1151]
6.6 µM	32 µM			Cc1ccc(C(c2cccc(F)c2)N2C[C@H](C)N(c3cc(=O)n(C)c4ccc(C#N)nc34)C[C@H]2CO)nc1 (stereo partly drawn) [Example 1153]
0.83 µM	0.28 µM			CC[C@@H]1CN(c2cc(=O)n(C)c3ccc(C#N)nc23)[C@@H](C)CN1C(CC1CCCCC1)c1ccc(OC(F)(F)F)cc1 (stereo partly drawn) [Example 1195]
1.4 µM	0.27 µM			CC[C@@H]1CN(c2cc(=O)n(C)c3ccc(C#N)nc23)[C@@H](C)CN1C(CC1CCCCC1)c1ccc(OC(F)(F)F)cc1 (stereo partly drawn) [Example 1196]
